Measured values as given in PMC10654779, “Development of a fibroblast activation protein-targeted PET/NIR dual-modality probe and its application in head and neck cancer” (Frontiers in Bioengineering and Biotechnology, 2023).

Assays:
[1] = Optical properties (UV/Vis absorbance and fluorescence emission spectra); assay type: physicochemical; details: 10 μM in PBS, diluted from 1 mM DMSO
Protocol: The ultraviolet absorption spectra of FAP-2286-ICG were collected using a UV/Vis spectrophotometer (DU-730, BeckMan Coulter). Fluorescence spectra were collected using a fluorescence spectrometer (FLS980, Edinburgh instruments). FAP-2286-ICG and ICG were dissolved in DMSO at a concentration of 1 mM before being diluted with PBS to a final concentration of 10 μΜ, respectively. The absorbance spectra were taken between 600 and 1100 nm. The emission spectra were recorded in the 790–860 nm range at an excitation wavelength of 770 nm. The concentration dependence of fluorescence intensity of FAP-2286-ICG was assessed with different concentrations of FAP-2286-ICG (0–100 μM). The fluorescent images were collected using a small animal fluorescence imaging system (VISQUE InVivo Smart-LF, Vieworks Co., Ltd) and analyzed using CleVue™ software (Vieworks Co., Ltd).

U87MG cells [2] = experiment: Cellular retention by fluorescence imaging; assay type: cell-based, human; details: 3 μM (based on ICG), 37 °C, 24 h incubation, n = 5
Protocol: (§1) For the cellular uptake study, U87MG cells (2×10^5 cells/well) were seeded in 24-well plates and incubated at 37°C for 24 h before the experiments (five replicate wells per group). After removing the medium and washing the cells with fresh medium, the cells in each well were treated with DMEM medium containing 0.74 MBq [^68Ga]Ga-FAP-2286-ICG at 37°C for 30, 60, and 120 min. After removing the medium, the cells were washed twice with cold PBS, lysed with NaOH (1 M) twice (0.5 mL/well), and collected. The bound activity was measured with a γ-counter. For the blocking study, a 100-fold excess of the non-radiolabeled precursor was added before treating the cells with [^68Ga]Ga-FAP-2286-ICG. Subsequent experimental procedure and condition were the same as the aforementioned cellular uptake assay. To further verify whether the introduction of ICG affected the targeting of the precursor, [^68Ga]Ga-FAP-2286 was incubated with U87MG cells for 2 h as a control group. Additionally, the retention effect of probe on the tumor was verified. Briefly, U87MG cells were incubated with DMEM medium containing approximately 3 μM (based on the content of ICG) FAP-2286-ICG or ICG at 37 °C for 2, 4, 8, and 24 h. After discarding the medium, the cells were washed three times with PBS and imaged using a small animal FI system with ICG mode to quantify the fluorescent signal.

U87MG xenografts [3] = experiment: NIR fluorescence imaging of U87MG tumor-bearing mice; assay type: in vivo; details: 0.5-72 h post-injection, n = 3
Protocol: FI was performed using a small animal FI system with ICG mode: The NIR filter set (Excitation: 740–790 nm; Emission: 810–860 nm) was used for ICG fluorescence. The fluorescence intensity was calculated by the mean fluorescence intensity (MFI).
To evaluate the optimal imaging time window, NIR fluorescence images of U87MG tumor-bearing mice were collected at different time points (0.5, 1, 2, 24, 48, and 72 h) post-injection of FAP-2286-ICG (3.16 μg, 1.37 nmol). Following in vivo FI, mice were euthanized, and their xenografts and major organs were harvested for in vitro FI analysis. The ROIs were drawn manually in the tumor and organs on the fluorescence image to account for the distribution of FAP-2286-ICG in the tissue. MFI levels from organs and the TBRs using tumor/muscle values were evaluated.

[4] = human; no reference given; cited from earlier work
Source text: Novel methodologies employing dual-labeled probes aid the surgeon by allowing for more streamlined preoperative planning via PET/CT or PET/MRI and accurate intraoperative navigation guidance.

in vitro = in vitro ADME
Protocol: The radiochemical purity (RCP) of [^68Ga]Ga-FAP-2286-ICG was assessed using radio instant thin-layer chromatography (Radio-iTLC). Glass microfiber chromatography paper impregnated with a silica gel served as the stationary phase and methanol and 0.25 M sodium acetate (1:1, v/v) as the mobile phase.
The in vitro stability of [^68Ga]Ga-FAP-2286-ICG was assessed by co-culture with 0.01 M PBS and FBS at a concentration of 10% (w/w), respectively, and the mixtures were incubated at 37°C for 0.5, 1, and 2 h.

[5] = assay type: physicochemical; details: pH 7.4
Protocol: The octanol-water partition coefficient of [^68Ga]Ga-FAP-2286-ICG was detected by mixing 10 μL of freshly prepared [^68Ga]Ga-FAP-2286-ICG with 490 μL of PBS (0.1 M, pH 7.4) and 500 μL of n-octanol in a centrifuge tube. The mixture was vortexed for 3 min and centrifuged at 3,000 × rpm for 5 min for layer separation. An aliquot of the aqueous and n-octanol layers was separately collected and measured by γ counter (GC-2101, PET Co., Ltd). Log p values were calculated using the formula: log P = log(total counts in octanol/total counts in PBS).

U87MG cells [6] = experiment: Cellular uptake study (radioactivity, γ-counter); assay type: cell-based, human
Protocol: as §1

in vivo = assay type: in vivo, mice; details: female, BALB/c nude, mouse, in vivo, iv, total radioactivity
Protocol: (§2) All animal studies were performed according to the protocols approved by the Animal Welfare Ethics Committee of Shanghai Fourth People’s Hospital. Six to eight-week-old female BALB/c nude mice were purchased from Beijing Vital River Laboratory Animal Technology Co., Ltd. To establish cell-derived xenograft (CDX) models, the mice were implanted subcutaneously in the flanks with 5 × 10^6 U87MG cells in PBS containing 50% Matrigel. HNSCC cell lines (FaDu, CAL27, and CNE2) were inoculated subcutaneously on the right flanks of nude mice. The diameter of each tumor was determined and documented every 2–3 days. When the tumor reached 300–400 mm^3, the mice were used for the imaging study. The U87MG tumor-bearing mice were used to study the in vivo targeting, biodistribution, and optimal FI time window of [^68Ga]Ga-FAP-2286-ICG. HNSCC tumor-bearing mice were used to evaluate the feasibility of [^68Ga]Ga-FAP-2286-ICG for tumor localization and guided surgical resection of HNSCC tumors.
(§3) PET/CT imaging was performed in U87MG tumor-bearing mice to assess the tumor-targeting efficiency and biodistribution of [^68Ga]Ga-FAP-2286-ICG in vivo. The mice were injected with 10 MBq (1 nmol) of [^68Ga]Ga-FAP-2286-ICG through the tail vein, and images were performed at 30, 60, and 90 min after injection. The blocking group was pre-injected with the 50-fold molar excess of non-radiolabeled precursor 1 h in advance.

U87MG xenografts [7] = experiment: in vivo; assay type: in vivo, mice; details: for SUVmax of the tumor: U87MG tumor-bearing mice, 10 MBq (1 nmol) i.v.
Protocol: as §2, §3

BALB/c mice = experiment: Toxicity study in BALB/c mice; assay type: in vivo
Protocol: The BALB/c mice were sacrificed and collected from the heart, liver, spleen, lung, and kidney to determine toxicity with hematoxylin and eosin (H&E) staining. The serum was collected to measure the levels of aspartate aminotransferase (AST), alanine aminotransferase (ALT), and blood urea nitrogen (UREA). Body weight was recorded every 5 days up to 20 days postinjection. The mice with intravenous injections of saline served as a control group.

SMILES	NIR-I fluorescence emission peak ([1]; excitation 770 nm, 790-860 nm) [nm]	absorption peak ([1]; spectra 600-1100 nm) [nm]	fluorescent signal retained by cells (U87MG cells [2])	fluorescence signal in the tumor site (U87MG xenografts [3])	clinically safe dose [4] [mg/kg]	RCP after incubation in PBS (in vitro)	remaining at 2 h (in vitro; serum) [%]	partition coefficient log P [5]	cellular uptake (U87MG cells [6]; 0.74 MBq, 37°C, 60 min, five replicate wells)	cellular uptake, blocked (U87MG cells [6]; 60 min, 100-fold excess of non-radiolabeled precursor)	cellular uptake of [68Ga]Ga-FAP-2286-ICG compared to [68Ga]Ga-FAP-2286 (U87MG cells [6]; 2 h incubation, p = 0.1945)	SUV (in vivo) [SUV]	SUVmax of the tumor, blocking group (U87MG xenografts [7]; 60 min p.i., 50-fold molar excess of non-radiolabeled precursor pre-injected 1 h in advance, n = 3)	SUVmax of the tumor (U87MG xenografts [7]; 30 min, n = 3)	SUVmax of the tumor (U87MG xenografts [7]; 90 min, n = 3)	route of elimination (PET/CT) (U87MG xenografts [7]; mouse, in vivo)	acute toxicity (BALB/c mice; BALB/c mice, 3-week period, n = 3)	serum concentrations of AST, ALT and UREA versus control group (BALB/c mice; BALB/c mice, 3 weeks after injection, saline control, n = 3)	pathological abnormalities in major organs (H&E) (BALB/c mice; mouse, in vivo)
CC1(C)C(/C=C/C=C/C=C/C=C2\N(CCCCS(=O)(=O)O)c3ccc4ccccc4c3C2(C)C)=[N+](CCCCS(=O)(=O)[O-])c2ccc3ccccc3c21 [ICG, indocyanine green]	808	779	3.13×10^13 ± 2.21×10^12 p/sec/cm^2/sr/[μW/cm^2]	no fluorescence signals in the tumor site	5	–	–	–	–	–	–	–	–	–	–	–	–	–	–
CCCCCC(=O)N[C@H]1CSCc2cc(CSCCNC(=O)[C@H](CCCCNC(=O)CCCCCN3/C(=C/C=C/C=C/C=C/C4=[N+](CCCCS(=O)(=O)[O-])c5ccc6ccccc6c5C4(C)C)C(C)(C)c4c3ccc3ccccc43)NC(=O)CN3CCN(CC(=O)O)CCN(CC(=O)O)CCN(CC(=O)O)CC3)cc(c2)CSC[C@@H](C(=O)O)NC(=O)[C@H](Cc2ccccc2)NC(=O)[C@H](CCC(N)=O)NC(=O)[C@H]([C@@H](C)O)NC(=O)[C@@H]2CCCN2C(=O)[C@@H]2CCCN2C1=O [[^68Ga]Ga-FAP-2286-ICG, metal not drawn]	–	–	–	–	–	greater than 85%	> 85	−1.20 ± 0.18	12.00% ± 1.73 %ID	6.88% ± 0.37 %ID	no statistically significant difference	0.18 ± 0.07	0.17 ± 0.01	0.57 ± 0.10	0.58 ± 0.23	mainly eliminated through liver metabolism and kidney excretion	no evident signs of acute toxicity	did not exhibit significant changes	No significant pathological abnormalities
